Assay results reported in patent US8871777B2, “Phenylpyrimidone compounds, the pharmaceutical compositions, preparation methods and uses thereof” (Topharman Shanghai Co., Ltd., priority 2008, dated 2014).

The compounds below were run against T1, human blood platelet PDE5 (Homo sapiens, UniProt O76074) (assay: PDE5 enzyme inhibition activity test (scintillation proximity)). Conditions: PDE5 table.
T1 construct: obtained by suitably treating various tissues and separating the enzyme with FPLC; from tissue; host or cells: human blood platelets
Type: biochemical
Procedure: More specifically, PDE5 and PDE3 were obtained from human blood platelet, and PDE6 was separated from bovine retina. Upon enzyme was separated out, the enzyme inhibition activity test would be carried out immediately. The said enzyme inhibition activity test was performed by directly detecting the scintillation proximity of AMP/GMP using TRKQ7100 and TRKQ7090 kits, which was generally as follows. In the presence of different concentrations of inhibitor and a small amount of substrate, 10 μl of buffer (50 mM Tris/HCl PH 7.5, 8.3 mM MgCl2, 1.7 mM EGTA) was added, and then water was added to a final volume of 100 μl. The reaction was initiated with a fixed amount of enzyme, incubated at 30° C. for 30 min, and then quenched with 50 μl of yttrium silicate beads comprising zinc sulphate. After shaken for 20 min, the reaction mixture was put in dark and settled for 30 min, and then readed on a BECKMAN LS6500 MULTI-PURPOSE SCINTILLATION COUNTER.

| SMILES | IC50 |
| --- | --- |
| CCCOc1ccc(-c2nc(CC)c(CC)c(=O)[nH]2)cc1-c1nc(CC)c(CC)c(=O)[nH]1 [Example 87, 2,2′-(4-n-Propoxy-1,3-phenylene)bis(5,6-diethylpyrimid-4(3H)-one)] | 3.29 nM |
| CCCOc1ccc(C(=O)NC(CCCNC(=N)N)C(=O)O)cc1-c1nc(CC)c(CC)c(=O)[nH]1 (stereo not shown) [Example 149, 2-(3-(4,5-diethyl-1,6-dihydro-6-oxopyrimidin-2-yl)-4-n-propoxybenzamido)-5-guanidylvaleric acid] | 1.8 nM |
| CCCOc1ccc(C(=O)NC(C)C(=O)OC)cc1-c1nc(CC)c(CC)c(=O)[nH]1 (stereo not shown) [Example 151, methyl 2-(3-(4,5-diethyl-1,6-dihydro-6-oxopyrimidin-2-yl)-4-n-propoxybenzamido)propionate] | 0.54 nM |
| CCCOc1ccc(C(=O)NC(C)C(N)=O)cc1-c1nc(CC)c(CC)c(=O)[nH]1 (stereo not shown) [Example 155, N-(1-aminoformylethyl)-3-(4,5-diethyl-1,6-dihydro-6-oxopyrimidin-2-yl)-4-n-propoxybenzamide] | 0.54 nM |
| CCCOc1ccc(S(=O)(=O)NC2C(O)OC(CO)C(O)C2O)cc1-c1nc(CC)c(CC)c(=O)[nH]1 (stereo not shown) [Example 208, 5,6-Diethyl-2-(2-n-propoxy-5-((tetrahydro-2,4,5-trihydroxy-6-(hydroxymethyl)-2H-pyran-3-ylamino)sulfonyl)phenyl]pyrimid-4(3H)-one] | 3.69 nM |
| CCCOc1ccc(C(=O)NC2C(O)OC(CO)C(O)C2O)cc1-c1nc(CC)c(CC)c(=O)[nH]1 (stereo not shown) [Example 211] | 0.9 nM |
| CCCOc1ccc(C(=O)NCCS(=O)(=O)N2CCN(C)CC2)cc1-c1nc(CC)c(CC)c(=O)[nH]1 [Example 213, 3-(4,5-diethyl-1,6-dihydro-6-oxopyrimidin-2-yl)-N-(4-methyl-1-piperazinylsulfonylethyl)-4-n-propoxybenzamide] | 2.8 nM |
| CCCOc1ccc(C(=O)NCCS(=O)(=O)N(CC)CC)cc1-c1nc(CC)c(CC)c(=O)[nH]1 [Example 214, 3-(4,5-diethyl-1,6-dihydro-6-oxopyrimidin-2-yl)-N-(N,N-diethylaminosulfonylethyl)-4-n-propoxybenzamide] | 1.8 nM |
| CCCOc1ccc(C(=O)NCCCS(=O)(=O)N2CCN(C)CC2)cc1-c1nc(CC)c(CC)c(=O)[nH]1 [Example 216, 3-(4,5-diethyl-1,6-dihydro-6-oxopyrimidin-2-yl)-N-(4-methyl-1-piperazinylsulfonylpropyl)-4-n-propoxybenzamide] | 0.83 nM |
| CCCOc1ccc(C2OC(CO)C(O)C(O)C2O)cc1-c1nc(CC)c(CC)c(=O)[nH]1 (stereo not shown) [Example 218, 5,6-Diethyl-2-(5-(tetrahydro-3,4,5-trihydroxy-6-(hydroxymethyl)-2H-pyran-2-yl)-2-n-propoxyphenyl)pyrimid-4(3H)-one] | 8.63 nM |

Further lines, results first:

| IC50 | SMILES |
| --- | --- |
| 0.76 nM | CCCOc1ccc(S(=O)(=O)NC(CCCNC(N)=O)C(=O)O)cc1-c1nc(CC)c(CC)c(=O)[nH]1 (stereo not shown) [Example 118, 2-(N-(3-(4,5-diethyl-1,6-dihydro-6-oxopyrimidin-2-y1)-4-n-propoxyphenyl)sulfonyl)amino-5-ureavaleric acid] |
| 6.31 nM | CCCOc1ccc(S(=O)(=O)NC(CCCN)C(=O)O)cc1-c1nc(CC)c(CC)c(=O)[nH]1 (stereo not shown) [Example 119, 2-(N-(3-(4,5-diethyl-1,6-dihydro-6-oxopyrimidin-2-yl)-4-n-propoxyphenyl)sulfonyl)amino-5-aminovaleric acid] |
| 0.64 nM | CCCOc1ccc(C(=O)NC(CCCNC(N)=O)C(=O)O)cc1-c1nc(CC)c(CC)c(=O)[nH]1 (stereo not shown) [Example 209, 2-(3-(4,5-diethyl-1,6-dihydro-6-oxopyrimidin-2-yl)-4-n-propoxybenzamido)-5-ureavaleric acid] |
| 6.23 nM | CCCOc1ccc(C(=O)NC(CCCN)C(=O)O)cc1-c1nc(CC)c(CC)c(=O)[nH]1 (stereo not shown) [Example 210, 2-(3-(4,5-diethyl-1,6-dihydro-6-oxopyrimidin-2-yl)-4-n-propoxybenzamido)-5-aminovaleric acid] |
| 0.79 nM | CCCOc1ccc(C(=O)NCCS(N)(=O)=O)cc1-c1nc(CC)c(CC)c(=O)[nH]1 [Example 212, 2-(3-(4,5-diethyl-1,6-dihydro-6-oxopyrimidin-2-yl)-4-n-propoxybenzamido)ethylsulphonamide] |
| 0.88 nM | CCCOc1ccc(C(=O)NCCCS(N)(=O)=O)cc1-c1nc(CC)c(CC)c(=O)[nH]1 [Example 215, 3-(3-(4,5-diethyl-1,6-dihydro-6-oxopyrimidin-2-yl)-4-n-propoxybenzamido)propylsulphonamide] |
